Experimental data published in patent US9339471B2, “Long acting dual release product containing carbinoxamine and pseudoephedrine” (E5 PHARMA, LLC, priority 2007, dated 2016).
Where two headings read alike, the source gives them in different places. Marks after values point to notes of the source that are not given here.

Key:
[1] = Single dose bioavailability study in the non-fasted state, 4 mg immediate release carbinoxamine maleate tablet; format: in vivo; design: Plasma concentration of carbinoxamine: unit not given here; settings: nonfasted; for AUC(0-t) / Cmax / MRT / Tmax / half-life / AUC: human, plasma, po, 4 mg; for AUC: read-out: AUC0-
Method: A single dose bioavailability study was also undertaken in the non-fasted state using 4 mg immediate release carbinoxamine maleate tablets formulated in an immediate release format. Samples were taken over a forty eight hours period after administration of the drug with heparinized tubes. Breakfast was ingested thirty minutes before administration.
FIG. 2 is a mean plasma concentration-time profile of carbinoxamine after administering the 4 mg carbinoxamine maleate immediate release tablet in the non-fasted state from time 0 to time 48 hours. Graph (A) is the linear ordinate; graph (B) is the log-linear ordinate. FIG. 3 is an overlay of mean plasma concentration-time profiles of carbinoxamine administered under nonfasted and fasted conditions from time 0 to 48 hours, as reported in Example 3. Graph (A) is an overlay in the linear ordinates for the two conditions; graph (B) is an overlay in the log-linear ordinates for the two conditions.

[2] = cited from earlier work; for AUC(0-t): AUC0-24
[3] = Literature 1 (Stockis et al. 1992): bioavailability of 8 mg aqueous solution and 8 mg retard capsule of carbinoxamine; settings: in vivo, normalized to 4 mg dose
Method: The pharmacokinetics of carbinoxamine maleate have been reported in the literature. Stockis et al., Arzneim.-Forsch 1992, 42(12):1478-81, studied the bioavailability of an 8 mg aqueous solution of carbinoxamine and an 8 mg retard capsule of carbinoxamine.
A single dose fasted bioavailability study was undertaken using four milligram immediate release carbinoxamine maleate tablets formulated in an immediate release format. Samples were taken over a forty eight hours period after administration of the drug, and the first meal was allowed to be ingested four hours after administration. Table 3 compares the observed pharmacokinetics from this test to those observed by Stockis et al. in Arzneim.-Forsch 1992, 42(12):1478-81, and Stockis et al. in Arzneim.-Forsch 1995, 45(9) 1009-1012.

[4] = Literature 1, Aqueous solution 8 mg
[5] = Literature 1, Retard capsule 8 mg
[6] = po, Literature 1, Retard capsule 8 mg

CN(C)CCOC(c1ccc(Cl)cc1)c1ccccn1 (stereo not drawn) [carbinoxamine, 2-[(4-chlorophenyl)-2-pyridinylmethoxy]-N,N-dimethylethanamine (Z)-2-butenedioate (1:1)]
AUC(0-t) ([1]; Mean): 212 ng·h/mL | Cmax ([1]; Mean): 12.6 ng/mL | MRT ([1]; Mean): 26.9 h | Tmax ([1]; Mean): 2.67 h | half-life ([1]; Mean): 19 h | AUC ([1]; Mean): 260 ng·h/mL | AUC(0-t) ([1]; subject 101): 175 ng·h/mL | Cmax ([1]; subject 101): 8.11 ng/mL | MRT ([1]; subject 101): 25.6 h | Tmax ([1]; subject 101): 4 h | half-life ([1]; subject 101): 17.1 h | AUC ([1]; subject 101): 206 ng·h/mL | AUC(0-t) ([1]; subject 102): 292 ng·h/mL | Cmax ([1]; subject 102): 18.9 ng/mL | MRT ([1]; subject 102): 31.7 h | Tmax ([1]; subject 102): 2 h | half-life ([1]; subject 102): 22.9 h | AUC ([1]; subject 102): 178 ng·h/mL | AUC(0-t) ([1]; subject 103): 170 ng·h/mL | Cmax ([1]; subject 103): 10.7 ng/mL | MRT ([1]; subject 103): 23.4 h | Tmax ([1]; subject 103): 2 h | half-life ([1]; subject 103): 16.9 h | AUC ([1]; subject 103): 196 ng·h/mL | Plasma concentration of carbinoxamine ([1]; 0 h, subject 101T): blq | Plasma concentration of carbinoxamine ([1]; 0 h, subject 102T): blq | Plasma concentration of carbinoxamine ([1]; 0 h, subject 103T): blq | Plasma concentration of carbinoxamine ([1]; 0.5 h, T-Mean): 1415.00 | Plasma concentration of carbinoxamine ([1]; 0.5 h, subject 101T): 1190.29 | Plasma concentration of carbinoxamine ([1]; 0.5 h, subject 102T): 1371.47 | Plasma concentration of carbinoxamine ([1]; 0.5 h, subject 103T): 1683.25 | Plasma concentration of carbinoxamine ([1]; 1 h, T-Mean): 9391.48 | Plasma concentration of carbinoxamine ([1]; 1 h, subject 101T): 5017.55 | Plasma concentration of carbinoxamine ([1]; 1 h, subject 102T): 15948.51 | Plasma concentration of carbinoxamine ([1]; 1 h, subject 103T): 7208.39 | Plasma concentration of carbinoxamine ([1]; 2 h, T-Mean): 12274.78 | Plasma concentration of carbinoxamine ([1]; 2 h, subject 101T): 7279.95 | Plasma concentration of carbinoxamine ([1]; 2 h, subject 102T): 18873.34 | Plasma concentration of carbinoxamine ([1]; 2 h, subject 103T): 10671.05 | Plasma concentration of carbinoxamine ([1]; 3 h, T-Mean): 10596.92 | Plasma concentration of carbinoxamine ([1]; 3 h, subject 101T): 7409.87 | Plasma concentration of carbinoxamine ([1]; 3 h, subject 102T): 14981.55 | Plasma concentration of carbinoxamine ([1]; 3 h, subject 103T): 9399.33 | Plasma concentration of carbinoxamine ([1]; 4 h, T-Mean): 9957.93 | Plasma concentration of carbinoxamine ([1]; 4 h, subject 101T): 8113.91 | Plasma concentration of carbinoxamine ([1]; 4 h, subject 102T): 12868.20 | Plasma concentration of carbinoxamine ([1]; 4 h, subject 103T): 8891.67 | Plasma concentration of carbinoxamine ([1]; 5 h, T-Mean): 9064.58 | Plasma concentration of carbinoxamine ([1]; 5 h, subject 101T): 7450.78 | Plasma concentration of carbinoxamine ([1]; 5 h, subject 102T): 11670.11 | Plasma concentration of carbinoxamine ([1]; 5 h, subject 103T): 8072.86 | Plasma concentration of carbinoxamine ([1]; 6 h, T-Mean): 8311.90 | Plasma concentration of carbinoxamine ([1]; 6 h, subject 101T): 7053.79 | Plasma concentration of carbinoxamine ([1]; 6 h, subject 102T): 10649.47 | Plasma concentration of carbinoxamine ([1]; 6 h, subject 103T): 7232.44 | Plasma concentration of carbinoxamine ([1]; 8 h, T-Mean): 7184.22 | Plasma concentration of carbinoxamine ([1]; 8 h, subject 101T): 6458.92 | Plasma concentration of carbinoxamine ([1]; 8 h, subject 102T): 8834.94 | Plasma concentration of carbinoxamine ([1]; 8 h, subject 103T): 6258.79 | Plasma concentration of carbinoxamine ([1]; 12 h, T-Mean): 5363.07 | Plasma concentration of carbinoxamine ([1]; 12 h, subject 101T): 4676.58 | Plasma concentration of carbinoxamine ([1]; 12 h, subject 102T): 7186.93 | Plasma concentration of carbinoxamine ([1]; 12 h, subject 103T): 4225.70 | Plasma concentration of carbinoxamine ([1]; 24 h, T-Mean): 3869.18 | Plasma concentration of carbinoxamine ([1]; 24 h, subject 101T): 3297.38 | Plasma concentration of carbinoxamine ([1]; 24 h, subject 102T): 5400.86 | Plasma concentration of carbinoxamine ([1]; 24 h, subject 103T): 2909.31 | Plasma concentration of carbinoxamine ([1]; 36 h, T-Mean): 2453.59 | Plasma concentration of carbinoxamine ([1]; 36 h, subject 101T): 2197.69 | Plasma concentration of carbinoxamine ([1]; 36 h, subject 102T): 3336.26 | Plasma concentration of carbinoxamine ([1]; 36 h, subject 103T): 1826.88 | Plasma concentration of carbinoxamine ([1]; 48 h, T-Mean): 1650.44 | Plasma concentration of carbinoxamine ([1]; 48 h, subject 101T): 1249.68 | Plasma concentration of carbinoxamine ([1]; 48 h, subject 102T): 2616.93 | Plasma concentration of carbinoxamine ([1]; 48 h, subject 103T): 1084.70 | Cmax ([2]; 8 mg aqueous solution): 24 ng/mL | half-life ([2]; 8 mg aqueous solution): 10.6 h | Cmax ([2]; 8 mg retard capsule): 16.9 ng/mL | Tmax ([2]; 8 mg retard capsule): 8 h | half-life ([2]; 8 mg retard capsule): 14.5 h | AUC(0-t) [2, 4]: 386^b ng/ml * h | Cmax [2, 4]: 24 ng/mL | T1/2 [2, 4]: 10.6 h | AUC(0-t) [2, 5]: 238^b ng/ml * h | Cmax [2, 5]: 16.9 ng/mL | T1/2 [2, 5]: 14.5 h | AUC(0-t) [3, 6]: 119 ng·h/mL | Cmax [3, 6]: 8.45 ng/mL | AUC(0-t) [3, 4]: 143 ng·h/mL | Cmax [3, 4]: 12 ng/mL
